According to patent EP4458804A1, “METHOD FOR PRODUCING AN OBJECT, PHENALEN-1-ONE COMPOUND AND USE THEREOF” (TriOptoTec GmbH, priority 2023, dated 2024):

Key:
[1] = Two-component system (kit of parts): impregnation of TPU films, visual colouring and resistance to rubbing/washing (Beispiel 6a/6b); assay type: physicochemical; settings: TPU Folien; 2K-System Beispiel 6a (Aceton/Isopropanol)
Description: Um eine Mehrkomponenten-System bereitzustellen, bei dem vorzugsweise flüchtigere Hilfskomponenten, die gegebenenfalls regelmäßiger im Prozess ergänzt werden müssen, in einer separaten Komponente bereitgestellt werden können, wurde zunächst folgendes 2K-System getestet.
Grundkomponente (A): Eine Mischung aus 40,0% w/w Aceton, 30,0% w/w Isopropanol und […] w/w Wasser wurden homogen vermengt. Die Mischung war dicht verschlossen > 12 Monate bei Raumtemperatur lagerbar.
Zusatzkomponente (B): Eine Mischung aus 3,0% w/w Phenoxyethanol, 3,0% w/w EDTA und 0,1 bis 2,0 % Photokatalysator in Wasser wurden homogen verrührt. Die Mischung war dicht verschlossen in dunklen Flaschen > 6 Monate bei Raumtemperatur lagerbar.
Beide Lösungen wurden vor dem Prozess zu gleichen Teilen gemischt, gefolgt von einer 1:5 Verdünnung mit Wasser. Nach guter Durchmischung war die Lösung gebrauchsfertig.
Bei F-64a und F-73 war eine schwache Gelb- bzw.
Grundkomponente (A) enthielt eine Mischung aus 30,0% w/w Dimethylsuccinat, 33,0% w/w 1,2-Propandiol, 12,0% w/w Tween 20 und 25,0 % Wasser.
Zusatzkomponente (B) enthielt eine Mischung aus 2,0 Gew.-% Phenoxyethanol, 2,0 Gew.-% EDTA und 0,1 Gew.-% bis 1,6 Gew.-% Photokatalysator, jeweils bezogen auf das Gesamtgewicht der Zusatzkomponente (B), wobei die entsprechenden Bestandteile in Wasser gelöst wurden und anschließend homogen verrührt wurden.
Die Komponenten wurden vor Gebrauch im Verhältnis A zu B 2:1 gemischt, gefolgt von einer 1:1 Verdünnung mit Wasser. Nach guter Durchmischung war die Lösung gebrauchsfertig.

[2] = system: S. aureus; assay: Bactericidal effect after tempering (Beispiel 19), modified ISO 22196; assay type: cell-based; settings: TPU film, Rezeptur 1, 1 mM
Description: (§1) Die Bestimmung der antimikrobiellen Aktivität erfolgte nach einer modifizierten Version der ISO 22196:2011-08 ("Messung von antibakterieller Aktivität auf Kunststoff- und anderen porenfreien Oberflächen", Ausgabedatum: 2011-08).
(§2) Bei der Testdurchführung wurde ein dünner Flüssigkeitsfilm, in dem die Bakterien enthalten sind (1,25 x 10^4 /cm^2), direkt auf die Probenkörper (3 x 3 cm) aufgebracht. Direkt nach Beimpfung wurden von der Nullprobe die Bakterien von den Probenkörperoberflächen mittels Ultraschall und Vortexen abgelöst und die Keimzahl (KBE (engl. CFU), Kolonie-bildende Einheit) bestimmt (t0-Wert).
(§3) Nach 4h wurden überlebende Bakterien von den Probenkörperoberflächen mittels Ultraschall und Vortexen abgelöst und die Keimzahl bestimmt (t4-Wert).
(§4) Im Unterschied zu der in der ISO 22196:2011-08 beschreibenen Methode wurde das Inokulum nicht mit einer Folie abgedeckt und die Inkubationszeit wurde von 24 auf 4 Stunden reduziert. Weiterhin wurden die Probenkörper der Proben 3 und 4 mit Licht der Intensität 20mW/cm2 für 10min belichtet, um eine biozide Wirkung nach Bestrahlung mit elektromagnetischer Strahlung zu bestimmen.
Weiterhin wurde die Belastbarkeit des Photokatalysators in der Folie mit zusätzlichen Tests wie Tempern bei 80°C und Dampfsterilisation bei 121°C untersucht. […]

[3] = Leaching stress test B following DIN EN 16105, nine immersion cycles (Beispiel 10 B); assay type: physicochemical; settings: Immersion test B (DIN EN 16105), medium Wasser, plastic TPU, Rezeptur 1 nach Beispiel 1
Method: Der Test wurde in Anlehnung an die DIN EN 16105:2011-12 ("[…] zur Bestimmung der Freisetzung von Substanzen aus Beschichtungen in intermittierendem […] unter A) beschrieben erzeugt. Es wurde vollentsalztes Wasser mit einem pH-Wert von (6 ± 1) und einer Wassertemperatur von (22 ± 3) °C verwendet. Beim Test wurden jeweils neun Tauchzyklen durchgeführt. […] Die erforderliche Wassermenge (z. B. 250 mL pro 100 cm2) musste hinzugefügt werden. Für jedes Eintauchen wurde frisches deionisiertes Wasser verwendet. Jeder Probekörper wurde in […]. Die […] so […] von Wasser mit der untersuchten Oberfläche möglich war. Der Tauchbehälter wurde dabei abgedeckt, um ein Verdunsten von Wasser während des Eintauchens zu […]. Der Überschuss wird direkt im UV-VIS-Spektrometer vermessen, vor dem ersten Immersionszyklus und nach Zyklen 1, 3, 5, 7 und 9. Die Ausgangswerte (Absorptionsmaximum des jeweiligen […] dabei zwischen 0,05 A.U. und 1,00 A.U. liegen. Die […] Immersionstest B

[4] = system: E.coli 10536; assay: Antibacterial activity of impregnated films, modified ISO 22196 with illumination (Beispiel 12); assay type: cell-based; settings: TPU Folie, Rezeptur 1, 1 mM F-24b; Licht 20mW/cm2 für 10min; Gram-negativ
Description: as §1, §2, §3, §4
(§5) Verwendet wurden TPU Folienstücke, die nach dem in Beispiel 4 beschriebenen Verfahren mit Rezeptur 1 behandelt wurden. Rezeptur 1 wurde hergestellt nach Beispiel 2. […] Der Test wurde in Anlehnung an ISO 22196 nach oben beschriebener Methode durchgeführt.

[5] = system: S.enterica; assay: as above; assay type: cell-based; settings: TPU Folie, Rezeptur 1, 1 mM F-24b; Licht 20mW/cm2 für 10min; Gram-negativ
Description: as §1, §2, §3, §4, §5

[6] = system: Acinetobacter pitii; assay: as above; assay type: cell-based; settings: TPU Folie, Rezeptur 1, 1 mM F-24b; Licht 20mW/cm2 für 10min; Gram-negativ
Description: as §1, §2, §3, §4, §5

[7] = system: S.aureus ATCC 6538; assay: Antibacterial activity of impregnated films, modified ISO 22196 with illumination (Beispiele 11-16, 25); assay type: cell-based
Description: as §1, §2, §3, §4, §5
TPU-Folienstücke wurden ebenfalls nach dem in Beispiel 4 beschriebenen Verfahren mit verschiedenen Rezepturen behandelt, die gemäß Beispiel 2 hergestellt wurden. Die Farbstoffkonzentration in der Imprägnierlösung betrug jeweils 1 mM F-24b. Der Test wurde in Anlehnung an ISO 22196 nach oben beschriebener Methode durchgeführt.
Die Farbstoffkonzentration in der Imprägnierlösung betrug jeweils 1 mM.
Die Photokatalysator-Konzentration von F-24b wurde variiert.
Es wurde ein Bakterientest in Anlehnung an ISO 22196 nach oben beschriebener Methode durchgeführt.

[8] = system: S.aureus ATCC 6538; assay: as above; assay type: cell-based; settings: Beispiel 14; TPU film; Rezeptur 1 (nach Beispiel 1); 1 mM photocatalyst in impregnation solution; light 20mW/cm2 10min
[9] = system: S. aureus; assay: Bactericidal effect after steam sterilisation (Beispiel 20), modified ISO 22196; assay type: cell-based; settings: TPU Folie, Rezeptur 1, 1 mM F-24b; after Dampfsterilisation 121°C, 2 h
Description: as §1, §2, §3, §4
Weiterhin wurde die Belastbarkeit des Photokatalysators in der Folie mit zusätzlichen Tests wie Tempern bei 80°C und Dampfsterilisation bei 121°C untersucht.

Question: Which “Imprägnierung / Färbung der Folie” value [1] does the source give for `CC(C)(O)c1cc[n+](CC2=Cc3cccc4cccc(c34)C2=O)cc1` [F-24b] here?
Answer: The value was “mit den vorherigen Daten vergleichbar”.

Question: What about the “Log10 Reduktion Hauptprobe” value ([2]; After 1 Woche 80°C Tempern) of the same compound?
Answer: Its value is 3,0 ± 1,1 log10.

Question: What about the “Log10 Reduktion Hauptprobe” value ([2]; After 1 h 80 °C Tempern) of the same compound?
Answer: The value was 4,1 ± 0,1 log10.

Question: And the “Abs. nach Auswaschen” value [3]?
Answer: The value was 0,006.

Question: What about the “Berechneter Verlust in %” value [3] of the same compound?
Answer: The value was 4,9%.

Question: And the “Log10 Reduktion Hauptprobe” value [4]?
Answer: The value was 4,8 ± 0,4 log10.

Question: And the “Log10 Reduktion Hauptprobe” value [5]?
Answer: Its value is 4,2 ± 0,6 log10.

Question: What about the “Log10 Reduktion Hauptprobe” value [6] of the same compound?
Answer: Its value is 3,0 ± 0,7 log10.

Question: And the “Log10 Reduktion Hauptprobe” value ([7]; Beispiel 13, TPU film, Rezeptur 1 nach Beispiel 2, 1 mM in impregnation solution, light 20mW/cm2 10min)?
Answer: The value was 4,0 ± 0,3 log10.

Question: And the “Log10 Reduktion Hauptprobe” value ([7]; Beispiel 13, TPU film, Rezeptur 2 nach Beispiel 2, 1 mM in impregnation solution, light 20mW/cm2 10min)?
Answer: Its value is 1,8 ± 1,3 log10.

Question: And the “Log10 Reduktion Hauptprobe” value ([7]; Beispiel 13, TPU film, Rezeptur 3 nach Beispiel 2, 1 mM in impregnation solution, light 20mW/cm2 10min)?
Answer: Its value is 4,2 ± 0,8 log10.

Question: What about the “Log10 Reduktion Hauptprobe” value ([7]; Beispiel 13, TPU film, Rezeptur 8 nach Beispiel 3, 1 mM in impregnation solution, light 20mW/cm2 10min) of the same compound?
Answer: Its value is 3,5 ± 0,5 log10.

Question: What about the “Log10 Reduktion Hauptprobe” value ([7]; Beispiel 15, TPU film, Rezeptur 1, photocatalyst concentration 0,5 mM) of the same compound?
Answer: Its value is 2,5 ± 1,4 log10.

Question: What about the “Log10 Reduktion Hauptprobe” value ([7]; Beispiel 15, TPU film, Rezeptur 1, photocatalyst concentration 0,25 mM) of the same compound?
Answer: The value was 2,8 ± 1,3 log10.

Question: What about the “Log10 Reduktion Hauptprobe” value ([7]; Beispiel 15, TPU film, Rezeptur 1, photocatalyst concentration 1 mM) of the same compound?
Answer: Its value is 3,5 ± 0,5 log10.

Question: What about the “Log10 Reduktion Hauptprobe” value ([7]; Beispiel 16, film material CPI (Polyimid), Rezeptur 1, 1 mM) of the same compound?
Answer: The value was 3,0 ± 0,1 log10.

Question: And the “Log10 Reduktion Hauptprobe” value ([7]; Beispiel 16, film material Nitril, Rezeptur 1, 1 mM)?
Answer: The value was 3,8 ± 0,3 log10.

Question: And the “Log10 Reduktion Hauptprobe” value ([7]; Beispiel 16, film material PET-G, Rezeptur 1, 1 mM)?
Answer: Its value is 4,0 ± 0,1 log10.

Question: And the “Log10 Reduktion Hauptprobe” value ([7]; Beispiel 16, film material PVC, Rezeptur 1, 1 mM)?
Answer: Its value is 3,9 ± 0,8 log10.

Question: And the “Log10 Reduktion Hauptprobe” value ([7]; Beispiel 16, film material Silikon, Rezeptur 1, 1 mM)?
Answer: Its value is 3,4 ± 0,1 log10.

Question: And the “Log10 Reduktion Hauptprobe” value ([7]; Beispiel 16, film material Surlyn, Rezeptur 1, 1 mM)?
Answer: The value was 3,6 ± 0,5 log10.

Question: And the “Log10 Reduktion Hauptprobe” value ([7]; Beispiel 16, film material TPU, Rezeptur 1, 1 mM)?
Answer: The value was 4,0 ± 0,3 log10.

Question: What about the “Log10 Reduktion Hauptprobe” value ([7]; TPU Folie, Rezeptur 1, 1 mM F-24b, Licht 20mW/cm2 für 10min, Gram-positiv) of the same compound?
Answer: Its value is 4,0 ± 0,3 log10.

Question: What about the “Log10 Reduktion Hauptprobe” value [8] of the same compound?
Answer: The value was 4,0 ± 0,3 log10.

Question: And the “Log10 Reduktion Hauptprobe” value [9]?
Answer: Its value is 1,5 ± 0,3 log10.
